Key:
[1] = Blood-to-plasma ratio in human whole blood; format: in vitro ADME; details: 1 μmol/L
Description: The blood‐to‐plasma ratios of THY1773 were analyzed using pooled fresh whole blood (anticoagulant: EDTA‐2K) and control plasma separated from fresh whole blood in parallel from rats, dogs, and humans. Whole blood and control plasma containing 1 μmol/L THY1773 were incubated at 37°C for 30 min in a shaking water bath. The incubated whole blood was centrifuged at 2000 × g for 10 min at 4°C to obtain plasma. An aliquot of each plasma sample (i.e., isolated plasma from incubated whole blood and control plasma) was mixed with 8 volumes of acetonitrile/methanol (9:1, vol/vol) containing the IS. After centrifugation at 3974 × g for 10 min at 4°C, the supernatant was subjected to liquid chromatography/tandem mass spectrometry (LC‐MS/MS) analysis. The blood‐to‐plasma ratio was calculated by dividing the […].

CYP2D6 = biological target: T1, CYP2D6 (Homo sapiens, UniProt P10635); assay: Reaction phenotyping in HLMs with quinidine; format: in vitro ADME
T1 construct: THY1773 (500 nmol/L) was incubated with pooled HLMs (0.5 mg protein/ml); tissue Sekisui XenoTech, LLC; host or cells: pooled human liver microsomes (50 donors)
T1 sequence (P10635 whole entry): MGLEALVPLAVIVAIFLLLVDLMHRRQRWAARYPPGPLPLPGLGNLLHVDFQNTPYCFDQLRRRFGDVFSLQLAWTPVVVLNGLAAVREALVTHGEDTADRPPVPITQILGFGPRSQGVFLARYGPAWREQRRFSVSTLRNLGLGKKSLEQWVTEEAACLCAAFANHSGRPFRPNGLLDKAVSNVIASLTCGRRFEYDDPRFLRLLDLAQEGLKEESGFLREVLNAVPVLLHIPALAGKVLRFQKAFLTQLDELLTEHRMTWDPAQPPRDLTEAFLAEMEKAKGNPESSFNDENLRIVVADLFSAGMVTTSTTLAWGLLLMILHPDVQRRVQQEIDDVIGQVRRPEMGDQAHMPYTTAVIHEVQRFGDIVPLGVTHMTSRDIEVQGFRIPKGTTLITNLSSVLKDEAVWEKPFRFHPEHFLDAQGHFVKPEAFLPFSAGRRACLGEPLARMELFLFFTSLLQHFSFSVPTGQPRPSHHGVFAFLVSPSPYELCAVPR
Description: Reaction phenotyping using cDNA expressed recombinant human CYP isoforms, CYP1A2, CYP2B6, CYP2C8, CYP2C9, CYP2C19, CYP2D6, and CYP3A4, was conducted. Each recombinant enzyme (100 pmol/ml) in potassium phosphate buffer (pH 7.4; 100 mmol/L for CYP3A4, 50 mmol/L for the others) was preincubated with [^3H]THY1773 (10 μmol/L) at 37°C for 5 min. The reactions were initiated by the addition of NADPH‐generating system (1 mmol/L NADP^+, 5 mmol/L G‐6‐P, 1 unit/ml G‐6‐PDH, and 5 mmol/L MgCl2) and incubated for 0 or 60 min. The reactions were terminated by the addition of an equal volume of acetonitrile/methanol (9:1, vol/vol), followed by centrifugation at 1650 × g for 10 min at 4°C. An aliquot of the supernatant was subjected to an Agilent 1200 HPLC system (Agilent Technologies, Inc.) equipped with a radiochemical flow detector (Radiomatic 625TR; Perkin Elmer, Inc.), and formation of metabolites was evaluated. Reaction phenotyping study was also conducted using HLMs and selective chemical inhibitors for CYP2D6 and CYP3A, which were assumed to have significant roles in THY1773 metabolism from recombinant metabolic stability. Quinidine (1 μmol/L) for CYP2D6 and ketoconazole (1 μmol/L) for CYP3A were used as selective inhibitors. THY1773 (500 nmol/L) was incubated with pooled HLMs (0.5 mg protein/ml) in potassium phosphate buffer (100 mmol/L, pH 7.4) in the absence or presence of the selective inhibitors. The reactions were initiated by the addition of NADPH generating system (1.3 mmol/L β‐NADP^+, 3.3 mmol/L G‐6‐P, 3.3 mmol/L MgCl2, and 0.4 units/ml G‐6‐PDH), and incubated at 37°C for 30 min. The reactions were terminated by the addition of two volumes of acetonitrile/methanol (9:1, vol/vol) containing the IS. […] The CLint was calculated by the method as described previously under metabolic stability in animal liver microsomes, and the fraction metabolized (fm) was calculated by Equation (1): (1) fm=1−(CLint, with inh/CLint) where CLint is intrinsic clearance without specific inhibitor and CLint,with inh is intrinsic clearance in the presence of specific inhibitor.

pituitary V1B receptor = biological target: T2, pituitary V1B receptor (Homo sapiens, UniProt P47901); assay: Phase 1 RO study using PET; format: in vivo; details: unpublished data
T2 construct: from tissue; host or cells: pituitary gland of human subjects, in vivo PET
T2 sequence (P47901 1-424): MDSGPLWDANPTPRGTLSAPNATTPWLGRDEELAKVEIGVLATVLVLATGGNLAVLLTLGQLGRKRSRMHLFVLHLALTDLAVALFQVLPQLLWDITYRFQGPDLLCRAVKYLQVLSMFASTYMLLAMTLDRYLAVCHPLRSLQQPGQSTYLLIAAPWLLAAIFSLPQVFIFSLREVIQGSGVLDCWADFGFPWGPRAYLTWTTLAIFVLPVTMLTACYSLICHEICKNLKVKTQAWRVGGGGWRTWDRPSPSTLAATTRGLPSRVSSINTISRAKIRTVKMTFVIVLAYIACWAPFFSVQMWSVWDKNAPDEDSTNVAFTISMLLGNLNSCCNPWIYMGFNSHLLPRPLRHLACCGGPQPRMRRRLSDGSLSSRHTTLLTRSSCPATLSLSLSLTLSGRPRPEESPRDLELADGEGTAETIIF

[2] = biological target: anterior pituitary V1B receptor; assay: Rat V1B RO study using a tritium labeled V1B receptor ligand; details: in vivo; estimated from RO study of Kamiya et al., 2020

CC(C)NC(=O)Cn1c(-c2cccc(Cl)c2)nn(-c2ccc(CCN3CCOCC3)cc2)c1=O [THY1773]
Blood-to-plasma ratio [1]: Theoretical limit (experimental data: 0.54)
CLint (CYP2D6; HLMs, with quinidine 1 μmol/L): 10.2 ± 0.509 µL/min/mg
fm,CYP2D6 (CYP2D6; PBPK input, experimental data): 0.089
fm (fraction metabolized) (CYP2D6; by CYP2D6, HLMs, quinidine 1 μmol/L): 0.0893
V1B RO at steady state (PET) (pituitary V1B receptor; 10 mg): 55.3%
V1B RO at steady state (PET) (pituitary V1B receptor; 50 mg): 75.1%
In vivo EC50 for V1B RO compared with in vitro Ki for human V1B receptor (pituitary V1B receptor; human PET): comparable (within twofold)
EC50 [2]: 4.8 nM

Source: paper PMC8252455, “Prediction of a clinically effective dose of THY1773, a novel V 1B receptor antagonist, based on preclinical data” (Biopharmaceutics & Drug Disposition, 2021)
